Reference: publication PMC12668310, “High‐Throughput Synthesis and Screening of a Cyanimide Library Identifies Selective Inhibitors of ISG15‐Specific Protease mUSP18” (Angewandte Chemie (International Ed. in English), 2025)

Biological target: T1, Flag-mUSP18 (Mus musculus, UniProt Q9WTV6)
T1 construct: expressed in transfected cells; host or cells: HEK293T
T1 sequence (Q9WTV6 1-368): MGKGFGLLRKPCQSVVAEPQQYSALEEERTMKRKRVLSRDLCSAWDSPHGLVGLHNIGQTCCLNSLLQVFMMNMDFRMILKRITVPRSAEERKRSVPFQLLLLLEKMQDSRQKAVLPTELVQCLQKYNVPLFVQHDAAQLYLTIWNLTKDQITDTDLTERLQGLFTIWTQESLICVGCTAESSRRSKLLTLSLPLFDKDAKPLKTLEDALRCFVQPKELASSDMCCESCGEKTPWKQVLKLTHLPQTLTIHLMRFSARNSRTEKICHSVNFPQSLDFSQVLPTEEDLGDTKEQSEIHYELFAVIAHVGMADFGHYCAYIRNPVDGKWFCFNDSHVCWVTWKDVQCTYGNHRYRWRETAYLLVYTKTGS
Assay: Gel-based ABPP with Rho-mISG15ct-PA probe in HEK293T cells overexpressing Flag-mUSP18
Format: cell-based, murine
Conditions: live HEK293T cells, Flag-mUSP18, 4 h treatment
Protocol: To assess the cellular target engagement and cell permeability of these inhibitors, we performed activity‐based protein profiling. […] Following washing and cell lysis, cell extracts were incubated with a Rhodamine‐tagged murine ISG15 C‐terminal domain propargylamide activity‐based probe (Rho‐mISG15ct‐PA), which covalently labels the active site cysteine of active deISGylating enzymes.^[ [41] ^] The labelled enzymes were resolved by SDS‐PAGE and imaged by in‐gel fluorescence, where inhibition of USP18 is reflected by disappearance of the USP18‐probe‐labelled bands around 55 kDa (Figures 6a, S11A). All three inhibitors engaged with cellular mUSP18 in a dose‐dependent manner, with BB07CA902 and BB07CA28 showing efficient inhibition already at 1 µM concentration. […] The in‐cell selectivity of these inhibitors for USP18 over DUBs was confirmed in a similar ABPP experiment using a Rhodamine‐tagged ubiquitin propargylamide probe (Rho‐Ub‐PA),^[ [42] ^] which labels the active site cysteine of all active cysteine DUBs.
Figure 6 Inhibition of murine USP18 activity in living cells. a) Gel‐based ABPP potency assessment using a Rho‐mISG15ct‐PA probe in HEK293T cells overexpressing Flag‐mUSP18. At 24 h following transfection, cells were incubated with DMSO or increasing concentrations of indicated inhibitors for 4 h, lysed, and treated with Rho‐mISG15ct‐PA probe. Top panel: fluorescence scan. Middle panel: anti‐Flag western blot. Bottom panel: anti‐GAPDH western blot confirms equal loading. b) Accumulation of ISGylation in mouse IFN‐β‐stimulated EL4 cells. At 24 h following mouse IFN‐β treatment, cells were incubated with DMSO or increasing concentrations of indicated inhibitors for 4 h, lysed, and treated with Rho‐mISG15ct‐PA probe. […] Middle panel: fluorescence scan. […]
Samples were then diluted 3-fold with water and analyzed by mass spectrometry by injecting 2 μL into a Waters XEVO-G2 XS Q-TOF mass spectrometer equipped with an electrospray ion source in positive mode (capillary voltage 1.2 kV, desolvation gas flow 900 L/h, T = 60 °C) with a resolution of R = 26,000. […]

SMILES	concentration at which inhibition of mUSP18 probe labelling is observed
Cc1cc(C(=O)N[C@H]2C[C@@H]3CN(C#N)C[C@@H]3C2)ccc1Br [BB07CA28]	≤ 1 µM
Cc1cc(C(=O)N[C@H]2C[C@@H]3CN(C#N)C[C@@H]3C2)ccc1C(C)C [BB07CA902]	≤ 1 µM
